Data reported in patent US9526785B2, “Pharmaceuticals for oral delivery” (Enteris BioPharma, Inc., priority 2013, dated 2016).
Where “and” joins values, the source holds several entries; their conditions need not be identical. Identical values can stand only once. Entries after “also recorded” stand apart in the source; their conditions may differ. Like-named read-outs stand apart in the source and are kept apart here.

Test: Tigecycline plasma PK and % F after PO enteric-coated capsule in dogs
Assay type: in vivo, Beagle dogs
Details: for bioavailability / AUC(0-t) / Cmax / Tmax / concentration at 0 min / concentration at 15 min / concentration at 30 min / concentration at 45 min: female, beagle, dog, plasma, po, 15 mg; for Tmax: read-out: Tmax (converted); for concentration at 0 min / concentration at 15 min / concentration at 30 min / concentration at 45 min: Tigecycline Plasma Concentration
Protocol: Adult beagle dogs weighing approximately 9 to 15 kg were used in the study. […] Room temperature was set to be maintained between approximately 20±5° C. Relative humidity was monitored but not controlled.
TEKLAD™ Certified Canine Diet was provided once daily in amounts (˜400 grams) appropriate for the size and age of the animals. Tap water was available ad libitum via automatic watering device or water bowls.
Oral dosing of enteric-coated capsules was accomplished by administering them to the back of the dog's mouth, followed by a chase of 5 mL water to ensure swallowing.
Water was provided ad libitum. […] Subsequently, each group of animals was dosed based on the protocol, i.e. either IV, or PO by capsule.
Minocycline (VWR international) was used as an internal standard. Sample processing/clean-up of plasma samples was carried out offline by protein precipitation with acidified acetonitrile using 0.5% trifluoroacetic acid (TFA).
The HPLC system consisted of Shimadzu SIL-HTc HPLC system equipped with dual Shimadzu LC-10ADvp isopumps, a Shimadzu CTO-10ASvp column temperature controller and a Shimadzu SPD-10Avp variable wavelength detector. […] Mobile phase A consisted of 23 mM phosphate buffer pH 2.5 with 4 mM 1-octanesulfonic acid, while mobile phase B consisting of 90% acetonitrile, 10% water, with 2 mM 1-octanesulfonic acid. […] The total runtime was 18 minutes per sample. The mobile phase flow rate was 1.2 mL/min. Detection was performed using the SPD-10Avp variable wavelength detector set at 350 nm, with a sensitivity of 0.001 aufs.
The samples were then centrifuged under refrigeration at 13 k rpm for 5 minutes. The supernatant was taken and the liquid removed to dryness under nitrogen in a turbovap. The dried extract was reconstituted in 60 μL of mobile phase A and the suspension was further centrifuged at 5 k rpm for 5 minutes to pellet any insoluble matter. The resulting supernatant was then injected onto the LC.
The unknown concentration in dog plasma samples was determined by interpolation of the peak area ratios of analyte:internal standard versus the ratio of their nominal concentrations into the regression line obtained from calibration standards spiked in pooled dog plasma. No regression weighting was used for the calculations. […] The calibration curve covered the range of 0.05 μg/mL to 5 μg/mL. […]
The capsules were enterically coated using a standard preclinical protocol to 10% weight gain. Two studies were conducted.

[1] = 15 min, PO 15 mg unformulated enteric-coated capsule, SC424, individual dogs
[2] = 30 min, PO 15 mg unformulated enteric-coated capsule, SC424, individual dogs
[3] = 45 min, PO 15 mg unformulated enteric-coated capsule, SC424, individual dogs

**Q.** With `CN(C)c1cc(NC(=O)CNC(C)(C)C)c(O)c2c1C[C@H]1C[C@H]3[C@H](N(C)C)C(O)=C(C(N)=O)C(=O)[C@@]3(O)C(O)=C1C2=O` [Tigecycline] as the compound, how does the “Tigecycline Plasma Concentration” value [1] read?
**A.** 0.00 ng/mL

**Q.** And the “Tigecycline Plasma Concentration” value [2]?
**A.** 0.00 ng/mL

**Q.** What about the “Tigecycline Plasma Concentration” value [3] of the same compound?
**A.** 0.00 ng/mL

**Q.** What about the “Tigecycline Plasma Concentration” value (60 min, PO 15 mg unformulated enteric-coated capsule, SC424, individual dogs) of the same compound?
**A.** 0.00 ng/mL

**Q.** And the “Tigecycline Plasma Concentration” value (75 min, PO 15 mg unformulated enteric-coated capsule, SC424, individual dogs)?
**A.** 0.00 ng/mL

**Q.** What about the “Tigecycline Plasma Concentration” value (90 min, PO 15 mg unformulated enteric-coated capsule, SC424, individual dogs) of the same compound?
**A.** 0.00 ng/mL

**Q.** And the “Tigecycline Plasma Concentration” value (120 min, PO 15 mg unformulated enteric-coated capsule, SC424, individual dogs)?
**A.** 0.00 ng/mL

**Q.** And the “Tigecycline Plasma Concentration” value (150 min, PO 15 mg unformulated enteric-coated capsule, SC424, individual dogs)?
**A.** 0.00 ng/mL

**Q.** What about the “% F” value (PO 15 mg enteric-coated capsule with 500 mg CA and 100 mg LLC, SC424, calculated from IV data of SC427, individual dogs) of the same compound?
**A.** 13.6% and 3.9% and 30.3% and 17.0% and 2.0% and 8.3% and 12.0% and 10.6%

**Q.** What about the plasma exposure (PO 15 mg unformulated (microcrystalline cellulose filler) enteric-coated capsule (SC424)) of the same compound?
**A.** No tigecycline exposure was observed; also recorded: did not result in observable plasma exposure

**Q.** What about the “% F” value (PO 30 mg enteric-coated capsule with 500 mg CA and 100 mg LLC, SC430, calculated from IV PK data of SC431, individual dogs) of the same compound?
**A.** 7.9% and 23.3% and 12.8% and 2.6%

**Q.** What about the plasma exposure (PO 30 mg unformulated (microcrystalline cellulose filler) enteric-coated capsule (SC430)) of the same compound?
**A.** No tigecycline exposure was observed; also recorded: did not result in observable plasma exposure

**Q.** What about the “% F” value (PO 45 mg enteric-coated capsule with 500 mg CA and 100 mg LLC, SC430, calculated from IV PK data of SC431, individual dogs) of the same compound?
**A.** 18.4% and 6.3% and 6.4% and 14.8% and 31.8%

**Q.** And the bioavailability (15 mg Formulated (500 mg CA, 100 mg LLC) enteric coated capsule, Study 1 (SC424), mean (% CV), read-out: % F)?
**A.** 12.2%

**Q.** What about the AUC(0-t) (15 mg Formulated (500 mg CA, 100 mg LLC) enteric coated capsule, Study 1 (SC424), mean (% CV), read-out: AUC(0-t)) of the same compound?
**A.** 133 ng·h/mL

**Q.** What about the Cmax (15 mg Formulated (500 mg CA, 100 mg LLC) enteric coated capsule, Study 1 (SC424), mean (% CV), read-out: Cmax) of the same compound?
**A.** 75.5 ng/mL

**Q.** And the Tmax (15 mg Formulated (500 mg CA, 100 mg LLC) enteric coated capsule, Study 1 (SC424), mean (% CV))?
**A.** 1.85 h

**Q.** What about the bioavailability (15 mg Unformulated enteric coated capsule, Study 1 (SC424), read-out: % F) of the same compound?
**A.** 0%

**Q.** What about the AUC(0-t) (PO 15 mg ([…]) enteric-coated capsule with 500 mg CA and 100 mg LLC (SC424), read-out: AUC(0-t), mean) of the same compound?
**A.** 133 ng·h/mL

**Q.** What about the Cmax (PO 15 mg ([…]) enteric-coated capsule with 500 mg CA and 100 mg LLC (SC424), read-out: Cmax, mean) of the same compound?
**A.** 75.5 ng/mL

**Q.** And the bioavailability (PO 15 mg ([…]) enteric-coated capsule with 500 mg CA and 100 mg LLC (SC424), read-out: absolute % F, mean)?
**A.** 12.2%

**Q.** And the bioavailability (PO 15 mg enteric-coated capsule with 500 mg CA and 100 mg LLC (SC424), read-out: % F, range of individual dogs)?
**A.** 2 to 30%

**Q.** What about the AUC(0-t) (PO 15 mg enteric-coated capsule with 500 mg CA and 100 mg LLC ([…]), SC424, mean, read-out: AUC(0-t)) of the same compound?
**A.** 133 ng·h/mL

**Q.** And the Cmax (PO 15 mg enteric-coated capsule with 500 mg CA and 100 mg LLC ([…]), SC424, mean, read-out: Cmax)?
**A.** 75.5 ng/mL

**Q.** What about the Tmax (PO 15 mg enteric-coated capsule with 500 mg CA and 100 mg LLC ([…]), SC424, mean) of the same compound?
**A.** 1.85 h

**Q.** What about the bioavailability (PO 15 mg enteric-coated capsule with 500 mg CA and 100 mg LLC, SC424, calculated from IV data of SC427, mean, read-out: % F) of the same compound?
**A.** 12.2%

**Q.** What about the bioavailability (PO 15 mg unformulated enteric-coated capsule ([…]), SC424, individual dogs, read-out: % F) of the same compound?
**A.** 0%

**Q.** What about the bioavailability (PO 15 mg unformulated enteric-coated capsule ([…]), SC424, mean, read-out: % F) of the same compound?
**A.** 0%

**Q.** And the bioavailability (Study 1 (SC424), 15 mg Formulated enteric coated capsule (500 mg citric acid, 100 mg LLC), oral, dogs, N=8, mean (% CV), based on that study's IV arm, read-out: % F)?
**A.** 12.2%

**Q.** What about the Tmax (Study 1 (SC424), 15 mg Formulated enteric coated capsule (500 mg citric acid, 100 mg LLC), oral, dogs, N=8, mean (% CV)) of the same compound?
**A.** 1.85 h

**Q.** And the AUC(0-t) (Study 1 (SC424), 15 mg Formulated enteric coated capsule (500 mg citric acid, 100 mg LLC), oral, dogs, N=8, mean (% CV), sampling 4 h, read-out: AUC(0-t))?
**A.** 133 ng·h/mL

**Q.** What about the Cmax (Study 1 (SC424), 15 mg Formulated enteric coated capsule (500 mg citric acid, 100 mg LLC), oral, dogs, N=8, mean (% CV), sampling 4 h, read-out: Cmax) of the same compound?
**A.** 75.5 ng/mL

**Q.** And the bioavailability (Study 1 (SC424), 15 mg Unformulated enteric coated capsule (microcrystalline cellulose filler), oral, dogs, N=8, based on that study's IV arm, read-out: % F)?
**A.** 0%

**Q.** What about the concentration at 0 min (PO 15 mg enteric-coated capsule with 500 mg CA and 100 mg LLC, SC424, individual dogs) of the same compound?
**A.** 0 ng/mL

**Q.** What about the concentration at 0 min (PO 15 mg enteric-coated capsule with 500 mg CA and 100 mg LLC, SC424, mean) of the same compound?
**A.** 0 ng/mL

**Q.** What about the concentration at 15 min (15 min, PO 15 mg enteric-coated capsule with 500 mg CA and 100 mg LLC, SC424, individual dogs) of the same compound?
**A.** 0 ng/mL

**Q.** What about the concentration at 15 min (15 min, PO 15 mg enteric-coated capsule with 500 mg CA and 100 mg LLC, SC424, mean) of the same compound?
**A.** 0 ng/mL

**Q.** And the concentration at 15 min [1]?
**A.** 0 ng/mL

**Q.** What about the concentration at 15 min (15 min, PO 15 mg unformulated enteric-coated capsule, SC424, mean) of the same compound?
**A.** 0 ng/mL

**Q.** And the concentration at 30 min (30 min, PO 15 mg enteric-coated capsule with 500 mg CA and 100 mg LLC, SC424, individual dogs)?
**A.** 0 ng/mL

**Q.** What about the concentration at 30 min (30 min, PO 15 mg enteric-coated capsule with 500 mg CA and 100 mg LLC, SC424, mean) of the same compound?
**A.** 0 ng/mL

**Q.** And the concentration at 30 min [2]?
**A.** 0 ng/mL

**Q.** And the concentration at 30 min (30 min, PO 15 mg unformulated enteric-coated capsule, SC424, mean)?
**A.** 0 ng/mL

**Q.** What about the concentration at 45 min (45 min, PO 15 mg enteric-coated capsule with 500 mg CA and 100 mg LLC, SC424, mean) of the same compound?
**A.** 8.45 ng/mL

**Q.** And the concentration at 45 min [3]?
**A.** 0 ng/mL

**Q.** And the concentration at 45 min (45 min, PO 15 mg unformulated enteric-coated capsule, SC424, mean)?
**A.** 0 ng/mL
